How the values were obtained:
[1] = biological target: T1, 15-PGDH (Homo sapiens, UniProt P15428); settings: 15-PGDH of HL-60 cells (Agins et al. 1987); cited from earlier work
T1 construct: 100,000 g supernatants prepared from PMA-treated HL-60 cells converted 15-HETE to 15-oxo-ETE; endogenous in cells; host or cells: HL-60 cells treated with PMA (16 nM, 24-72 h); freeze-thaw lysate, 100,000 g supernatant
T1 sequence (P15428 1-266): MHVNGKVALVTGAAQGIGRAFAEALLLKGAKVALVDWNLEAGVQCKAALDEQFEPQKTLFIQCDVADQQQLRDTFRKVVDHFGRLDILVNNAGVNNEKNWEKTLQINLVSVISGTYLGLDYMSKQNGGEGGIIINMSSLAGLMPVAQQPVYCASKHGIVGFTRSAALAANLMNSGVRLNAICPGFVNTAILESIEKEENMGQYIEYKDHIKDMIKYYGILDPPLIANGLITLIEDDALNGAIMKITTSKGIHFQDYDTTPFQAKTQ

[2] = system: A549 cells; assay: 15-HETE generation by IL-1β-treated A549 cells; assay type: cell-based, human
Method: FIG. 3 is a graph showing the relative chiralities of 15-HETE triggered by ASA. A549 cells (10^7 cells per flask) were exposed to IL-1β (1 ng/ml) for 24 h, treated with vehicle (0.1% vol/vol ethanol) (□) or ASA (▪) for 20 min and then incubated (30 min, 37° C.) in HBSS containing arachidonic acid (20 μM) and A23187 (5 μM). Products were chromatographed by RP-HPLC (as in FIG. 1B) and the region containing 15-HETE was collected, extracted with chloroform and treated with diazomethane. Chiral analysis was performed with a Bakerbond DNBPG (see Methods for details). Results are representative of two separate experiments showing similar results.
In incubations involving permeabilized A549 cells (prepared by a rapid freeze-thaw cycle), IL-1β-treated (1 ng/ml, 24 h) A549 cells (1.5×10^6 cells/ml) were pretreated for 20 min with either vehicle (0.1% EtOH), ASA (500 (M; used throughout), 5 (M 17-ODYA, an inhibitor of cytochrome P450, (Muerhoff A. S., et al. (1989) Prostaglandin and fatty acid ω and (ω-1)-oxidation in rabbit lung: acetylenic fatty acid mechanism-based inactivators as specific inhibitors. J Biol.Chem. 244: 749-756.), or […] Rev 5901 isomer, a 5-LO inhibitor, subjected to two cycles of rapid freezing in a dry ice-acetone bath and thawing to room temperature (full cycle <20 min), and incubated with arachidonic acid ([…] for 20 min at 37° C. in 4 ml of DPBS^2+. In experiments involving radiolabeled arachidonic acid, incubations were initiated with the addition of [^3H]-arachidonic acid (0.25 (Ci/ml) plus unlabeled arachidonic acid ([…] for 20 min at 37° C.
For time-course experiments involving the generation of 15-HETE from endogenous sources (see FIG. 2B), intact A549 cells were exposed to IL-1β (1 ng/ml) for up to 48 h and then treated with vehicle (containing 0.1% EtOH) or ASA for 20 min followed by addition of ionophore A23187 (5 μM) in 4 ml of HBSS for 30 min at 37° C.
The monohydroxy eicosanoids (i. e. 5-, 12- and 15-HETE) from A549 cells were analyzed using a Ultrasphere-ODS column (5 μm, 4.6 mm×25 cm) (Beckman Instruments, Fullerton, Calif.) was eluted with MeOH/H2O/acetic acid (65:35:0.01; v/v/v) as phase one (t0-20 min), and a linear gradient with MeOH/acetic acid (99.9:0.1, v/v) as phase two (20-45 min) at a flow rate of 1.0 ml/min. The R- and S-enantiomers of 15-HETE were resolved and identified using a chiral HPLC system similar to that reported by Hawkins et al. (1988). […] When indicated, generation of 15-HETE from endogenous sources was monitored by radioimmunoassay (RIA). […]

[3] = system: A549 cell-PMN costimulation; assay: Eicosanoid formation in A549 cell-PMN coincubations; assay type: cell-based, human; settings: A549 cells exposed 20 min before addition of PMN
Method: In coincubation experiments, confluent A549 cells were exposed to IL-1β (1 ng/ml, 24 h), washed in HBSS and treated with vehicle alone or ASA for 20 min and arachidonic acid ([…] for 60 seconds at 37° C. Coincubations were performed by adding PMN to A549 cell monolayers followed by costimulation with ionophore A23187 (5 μM) in 4 ml of HBSS for 30 min at 37° C.
For analysis of LXs (including LXs and 15-epi-LXs) from A549 cell-PMN, coincubations were carried out using either a Waters (Bondapak C18 ([…]) column eluted with an isocratic mobile phase MeOH/H2O/acetic acid (60:40:0.01; v/v/v) with a flow rate of 0.6 ml/min or an Altex Ultrasphere ODS column (5 μm, 10 ×25 cm) eluted with MeOH/H2O/acetic acid (65:35:0.01; v/v/v) at a flow of 3 ml/min. Peptidoleukotrienes (LTC4 and LTD4) eluted in the MeOH fractions from Sep-Pak cartridge extractions were resolved with a Beckman Ultrasphere-ODS column eluted with MeOH/H2O/acetic acid (65:35:0.01; v/v/v), pH 5.7, at 1 ml/min. […] The material beneath peaks absorbing at 300 nm were individually collected after RP-HPLC and analyzed by gas chromatography-mass spectrometry (GC-MS) employing a Hewlett-Packard 5890 GC series II equipped with a 5971A mass-selective quadrapole detector as in Clària, J. and Serhan, C. […]

[4] = system: HUVEC; assay: 3H-LTB4 binding to HUVEC; design: species or system human; settings: 3H-LTB4, n=3
Method: Cell cultures and differentiation. HL-60 cells were seeded in RPMI medium supplemented with 100 U/ml penicillin, 100 μg/ml streptomycin, and 10% fetal calf serum (Hyclone, Logan, Utah), incubated at 37° C. with 5% CO2 atmosphere in 250 ml flasks. Individual flasks containing ˜[…] next received dimethyl sulfoxide (DMSO) (1.12% v/v, 120 h) or retinoic acid (RA) (1 μM, 120 h) or phorbol myristate acetate (PMA) (20 nM, 48 h). Before performing binding assays, cells were washed twice in phosphate buffered saline (PBS), Ca^2+- and Mg^2+-free, enumerated and suspended at 20×10^6 cells/ml in Tris buffer (10 mM), pH 7.4 (Fiore, S. et al.(1992) J. Biol. Chem. 267:16168). Nitro blue tetrazolium reduction was performed to monitor induction of polymorphonuclear phenotype as in (Imaizumi, M. and Breitman, T. R. (1986) Blood 67:1273), and cell adherence was determined for induction of macrophage-like phenotype (Collins, S. J. (1987) Blood 70:1273). […]
Ligand binding. ^3H-LXA4 and ^3H-LTB4 binding was performed essentially as in Fiore, S. et al.(1992) J. Biol. Chem. 267:16168. […] The incubations were rapidly centrifuged (60 sec, 12,000 g) on silicon oil (d=1.028), and cell-associated radioactivity was determined by liquid scintillation counting (Wallac 1409, Pharmacia, Piscataway, N.J.). […]

[5] = biological target: T2, LXA4 specific binding sites of differentiated HL-60 cells (Homo sapiens, UniProt P25090); assay: 3H-LXA4 specific binding to differentiated HL-60 cells; settings: competition, competitor 300 nM where printed
T2 construct: endogenous in cells; host or cells: HL-60 cells differentiated with DMSO, retinoic acid or PMA; intact cells
T2 sequence (P25090 1-351): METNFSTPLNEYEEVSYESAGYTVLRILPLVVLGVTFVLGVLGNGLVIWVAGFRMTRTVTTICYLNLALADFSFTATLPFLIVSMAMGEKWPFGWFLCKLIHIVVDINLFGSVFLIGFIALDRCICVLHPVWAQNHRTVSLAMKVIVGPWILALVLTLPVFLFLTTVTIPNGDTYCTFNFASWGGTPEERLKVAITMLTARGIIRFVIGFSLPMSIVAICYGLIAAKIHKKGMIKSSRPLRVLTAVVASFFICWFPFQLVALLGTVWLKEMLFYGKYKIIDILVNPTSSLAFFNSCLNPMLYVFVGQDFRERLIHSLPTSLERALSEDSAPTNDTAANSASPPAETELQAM

[6] = pretreatment 20 min, 37° C., chiral HPLC

CCCCC[C@H](O)/C=C/C=C\C/C=C\C/C=C\CCCC(=O)O [15-HETE, 15-hydroxyeicosatetraenoic acid]
substrate efficiency compared to PGE2 [1]: 92%

CC(=O)Oc1ccccc1C(=O)O [ASA, acetylsalicylic acid]
effect on formation of 15-HETE ([2]; permeabilized IL-1β-treated A549 cells, arachidonic acid 20 μM): marked increase
formation of 15S-HETE [2, 6]: remained unaltered
increase in the amounts of 15R-HETE [2, 6]: 3 fold
formation of LXs [3]: increase in the formation of LXs
formation of pLTs (LTC4 plus LTD4) [3]: decrease in pLTs

CCCCC/C=C\C[C@@H](O)/C=C/C=C/C=C\[C@@H](O)CCCC(=O)O [LTB4, leukotriene B4]
specific binding to HUVEC [4]: did not specifically bind
displacement of 3H-LXA4 specific binding [5]: Neither LXB4, LTB4, nor trihydroxyheptanoic acid (methyl ester) (300 nM) were able to displace
